Test results as given in patent US20260258050A1, “IMMUNOMODULATOR” (HITGEN INC., priority 2023, published 2026).

What follows are compounds tested against T1, Human IL-17A (Homo sapiens, UniProt Q16552) (assay: IL-17A enzyme-linked immunosorbent assay (competitive ELISA, IL-17A/IL-17Ra receptor-ligand binding)). Conditions: human IL-17A coated plate, human IL-17Ra, read-out: IC50, inhibitory activity of compounds on human IL-17A.
T1 sequence (Q16552 20-155 limits assumed): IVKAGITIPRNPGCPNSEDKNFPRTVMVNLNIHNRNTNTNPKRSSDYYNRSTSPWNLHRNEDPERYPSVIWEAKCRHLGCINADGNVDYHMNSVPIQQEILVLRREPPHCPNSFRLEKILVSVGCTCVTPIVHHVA
Set-up: purchased Sino Biological Inc. 12047-H07B
How it was run: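 Competitive ELISA with plates coated with human IL-17A at 0.2 μg/ml, blocked with 5% skim milk. Compound pre-incubated with IL-17A 10 min at 25 °C, then 16 nM IL-17Ra stock added for 30 min. Bound receptor detected by anti-Fc HRP/TMB, A450. IC50 from variable-slope fit of blank-corrected residual activity.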

`Cc1[nH]nc2c1-c1cnc(NC(=O)[C@@H](NC(=O)c3ccnn3C3CC3)C(C3CC3)C3CC3)cc1COCC2` [compound 237] and `Cc1[nH]nc2c1-c1cnc(NC(=O)[C@@H](NC(=O)c3ccnn3C(C)C3CC3)C(C3CC3)C3CC3)cc1COCC2` (single isomer, unassigned) [compound 188b] cannot be ordered by IC50: at most 50 nM for the first, at most 50 nM for the second.

`Cc1[nH]nc2c1-c1cc(F)c(NC(=O)[C@@H](NC(=O)c3ccnn3CCC(F)F)C(C3CC3)C3CC3)cc1COCC2` [compound 65] and `Cc1[nH]nc2c1-c1cc(F)c(NC(=O)[C@@H](NC(=O)c3ccnn3CCCF)C(C3CC3)C3CC3)cc1COCC2` [compound 86] cannot be ordered by IC50: at most 50 nM for the first, at most 50 nM for the second.

`[2H]C([2H])([2H])C([2H])(n1nccc1C(=O)N[C@H](C(=O)Nc1cc2c(cc1F)-c1c(n[nH]c1C)CCOC2)C(C1CC1)C1CC1)C([2H])([2H])[2H]` [compound 89] and `[2H]C([2H])([2H])C([2H])(n1nccc1C(=O)N[C@H](C(=O)Nc1cc2c(cn1)-c1c(n[nH]c1C)CCOC2)C(C1CC1)C1CC1)C([2H])([2H])[2H]` [compound 54] cannot be ordered by IC50: at most 50 nM for the first, at most 50 nM for the second.

`Cc1[nH]nc2c1-c1cnc(NC(=O)[C@@H](NC(=O)c3conc3C3CC3)C(C3CC3)C3CC3)cc1COCC2` [compound 241] and `CCc1nocc1C(=O)N[C@H](C(=O)Nc1cc2c(cn1)-c1c(n[nH]c1C)CCOC2)C(C1CC1)C1CC1` [compound 240] cannot be ordered by IC50: at most 50 nM for the first, at most 50 nM for the second.

`Cc1[nH]nc2c1-c1cnc(NC(=O)[C@@H](NC(=O)c3ccnn3C(C)C)C(C3CC3)C3CC3)cc1CN(C(C)C)C(=O)C2` [compound 195] and `Cc1[nH]nc2c1-c1cnc(NC(=O)[C@@H](NC(=O)c3ccnn3C(C)C)C(C3CC3)C3CC3)cc1CN(C1CC1)C(=O)C2` [compound 191] cannot be ordered by IC50: at most 50 nM for the first, at most 50 nM for the second.

`CCc1nocc1C(=O)N[C@H](C(=O)Nc1cc2c(cn1)-c1c(n[nH]c1C)CCN(C1CC1)C2)C(C1CC1)C1CC1` [compound 216] and `Cc1[nH]nc2c1-c1cnc(NC(=O)[C@@H](NC(=O)c3conc3C(C)C)C(C3CC3)C3CC3)cc1CN(C1CC1)CC2` [compound 214] cannot be ordered by IC50: at most 50 nM for the first, at most 50 nM for the second.

`Cc1[nH]nc2c1-c1cnc(NC(=O)[C@@H](NC(=O)c3ccnn3C(C)C)C(C3CC3)C3CC3)cc1CN(C1CC(F)(F)C1)C(=O)C2` [compound 194] and `Cc1[nH]nc2c1-c1cc(F)c(NC(=O)[C@@H](NC(=O)c3ccnn3C(C)C)C(C3CC3)C3CC3)cc1CN(C1CC(F)(F)C1)C(=O)C2` [compound 169] cannot be ordered by IC50: at most 50 nM for the first, at most 50 nM for the second.

`CCn1nccc1C(=O)N[C@H](C(=O)Nc1ccc2c(c1)CN(C)C(=O)Cc1n[nH]c(C)c1-2)C(C1CC1)C1CC1` [compound 23] and `Cc1[nH]nc2c1-c1ccc(NC(=O)[C@@H](NC(=O)c3ccnn3C(C)C)C(C3CC3)C3CC3)cc1CN(C)C(=O)C2` [compound 22] cannot be ordered by IC50: at most 50 nM for the first, at most 50 nM for the second.

`Cc1[nH]nc2c1-c1ccc(NC(=O)[C@@H](NC(=O)c3ccnn3C)C(C3CC3)C3CC3)cc1COCC2` [compound 2] and `Cc1[nH]nc2c1-c1cc(F)c(NC(=O)[C@@H](NC(=O)c3ccnn3C)C(C3CC3)C3CC3)cc1COCC2` [compound 17] cannot be ordered by IC50: at most 50 nM for the first, at most 50 nM for the second.

`Cc1[nH]nc2c1-c1cc(F)c(NC(=O)[C@@H](NC(=O)c3ccnn3C[C@@H]3C[C@H]3F)C(C3CC3)C3CC3)cc1COCC2` [compound 101] and `Cc1[nH]nc2c1-c1cc(F)c(NC(=O)[C@@H](NC(=O)c3ccnn3CC3CC3)C(C3CC3)C3CC3)cc1COCC2` [compound 59] cannot be ordered by IC50: at most 50 nM for the first, at most 50 nM for the second.

`Cc1[nH]nc2c1-c1cc(F)c(NC(=O)[C@@H](NC(=O)c3ccnn3C(C)C)C(C3CC3)C3CC3)cc1COCC2` [compound 15] and `Cc1[nH]nc2c1-c1cc(F)c(NC(=O)[C@@H](NC(=O)c3ccnn3C(C)CF)C(C3CC3)C3CC3)cc1COCC2` (single isomer, unassigned) [compound 42b] cannot be ordered by IC50: at most 50 nM for the first, at most 50 nM for the second.

`Cc1[nH]nc2c1-c1cnc(NC(=O)[C@@H](NC(=O)c3ccnn3C(C)C)C(C3CC3)C3CC3)cc1CN(C1CC1)CC2` [compound 198] and `Cc1[nH]nc2c1-c1cnc(NC(=O)[C@@H](NC(=O)c3ccnn3C(C)C)C(C3CC3)C3CC3)cc1CN(C(C)C)CC2` [compound 200] cannot be ordered by IC50: at most 50 nM for the first, at most 50 nM for the second.

`Cc1[nH]nc2c1-c1cnc(NC(=O)[C@@H](NC(=O)c3ccnn3CC(F)(F)F)C(C3CC3)C3CC3)cc1COCC2` [compound 236] and `Cc1[nH]nc2c1-c1cnc(NC(=O)[C@@H](NC(=O)c3ccnn3CCCF)C(C3CC3)C3CC3)cc1COCC2` [compound 124] cannot be ordered by IC50: at most 50 nM for the first, at most 50 nM for the second.

`Cc1[nH]nc2c1-c1cnc(NC(=O)[C@@H](NC(=O)c3ccnn3C(C)C)C(C3CC3)C3CC3)cc1CN(CC(C)(F)F)C(=O)C2` [compound 193] and `Cc1[nH]nc2c1-c1cc(F)c(NC(=O)[C@@H](NC(=O)c3ccnn3C(C)C)C(C3CC3)C3CC3)cc1CN(C(C)C(F)(F)F)C(=O)C2` (mixture of isomers) [compound 173] cannot be ordered by IC50: at most 50 nM for the first, at most 50 nM for the second.

`Cc1[nH]nc2c1-c1cc(F)c(NC(=O)[C@@H](NC(=O)c3ccnn3CC3CCC3)C(C3CC3)C3CC3)cc1COCC2` [compound 60] and `[2H]C([2H])(C1CC1)n1nccc1C(=O)N[C@H](C(=O)Nc1cc2c(cc1F)-c1c(n[nH]c1C)CCOC2)C(C1CC1)C1CC1` [compound 76] cannot be ordered by IC50: at most 50 nM for the first, at most 50 nM for the second.

`Cc1[nH]nc2c1-c1cc(F)c(NC(=O)[C@@H](NC(=O)c3ccnn3CC(C)(F)F)C(C3CC3)C3CC3)cc1COCC2` [compound 87] and `CCn1nccc1C(=O)N[C@H](C(=O)Nc1cc2c(cc1F)-c1c(n[nH]c1C)CCOC2)C(C1CC1)C1CC1` [compound 16] cannot be ordered by IC50: at most 50 nM for the first, at most 50 nM for the second.

`CCn1nccc1C(=O)N[C@H](C(=O)Nc1ccc2c(c1)CNC(=O)Cc1n[nH]c(C)c1-2)C(C1CC1)C1CC1` [compound 28] and `Cc1[nH]nc2c1-c1ccc(NC(=O)[C@@H](NC(=O)c3ccnn3C(C)C)C(C3CC3)C3CC3)cc1CNC(=O)C2` [compound 27] cannot be ordered by IC50: at most 50 nM for the first, at most 50 nM for the second.

`Cc1[nH]nc2c1-c1cc(F)c(NC(=O)[C@@H](NC(=O)c3ccnn3C(C)C3CC3)C(C3CC3)C3CC3)cc1COCC2` (single isomer, unassigned) [compound 41b] and `Cc1[nH]nc2c1-c1cc(F)c(NC(=O)[C@@H](NC(=O)c3ccnn3CCOC(C)C)C(C3CC3)C3CC3)cc1COCC2` [compound 98] cannot be ordered by IC50: at most 50 nM for the first, at most 50 nM for the second.

`Cc1[nH]nc2c1-c1cc(F)c(NC(=O)[C@@H](NC(=O)c3cnnn3CCOC(F)F)C(C3CC3)C3CC3)cc1COCC2` [compound 108] and `Cc1[nH]nc2c1-c1cc(F)c(NC(=O)[C@@H](NC(=O)c3ccnn3CCOCC(F)(F)F)C(C3CC3)C3CC3)cc1COCC2` [compound 104] cannot be ordered by IC50: at most 50 nM for the first, at most 50 nM for the second.

`Cc1[nH]nc2c1-c1cc(F)c(NC(=O)[C@@H](NC(=O)c3ccnn3C(C)C)C(C3CC3)C3CC3)cc1CN(C1CCOCC1)C(=O)C2` [compound 167] and `Cc1[nH]nc2c1-c1cc(F)c(NC(=O)[C@@H](NC(=O)c3ccnn3C(C)C)C(C3CC3)C3CC3)cc1CN(C1CCC(F)(F)CC1)C(=O)C2` [compound 168] cannot be ordered by IC50: at most 50 nM for the first, at most 50 nM for the second.

`Cc1[nH]nc2c1-c1cc(F)c(NC(=O)[C@@H](NC(=O)c3ccnn3C(C)C3CC3)C(C3CC3)C3CC3)cc1COCC2` (single isomer, unassigned) [compound 41a] and `COCC(COC)n1nccc1C(=O)N[C@H](C(=O)Nc1cc2c(cc1F)-c1c(n[nH]c1C)CCOC2)C(C1CC1)C1CC1` [compound 99] cannot be ordered by IC50: at most 50 nM for the first, 50 to 150 nM for the second.

`CCn1nccc1C(=O)N[C@H](C(=O)Nc1cc2c(cc1F)-c1c(n[nH]c1C)CCOC2)[C@H]1CC[C@H](C)CC1` [compound 46] and `CSCCn1nccc1C(=O)N[C@H](C(=O)Nc1cc2c(cc1F)-c1c(n[nH]c1C)CCOC2)C(C1CC1)C1CC1` [compound 61] cannot be ordered by IC50: at most 50 nM for the first, at most 50 nM for the second.

`Cc1[nH]nc2c1-c1cc(F)c(NC(=O)[C@@H](NC(=O)/C(F)=C\C3CC3)C(C3CC3)C3CC3)cc1COCC2` [compound 230] and `Cc1[nH]nc2c1-c1cc(F)c(NC(=O)[C@@H](NC(=O)/C(F)=C\C(C)C)C(C3CC3)C3CC3)cc1COCC2` [compound 229] cannot be ordered by IC50: at most 50 nM for the first, at most 50 nM for the second.

`Cc1[nH]nc2c1-c1cc(F)c(NC(=O)[C@@H](NC(=O)c3ccnn3CCC(F)(F)F)C(C3CC3)C3CC3)cc1COCC2` [compound 88] and `Cc1[nH]nc2c1-c1cc(F)c(NC(=O)[C@@H](NC(=O)c3ccnn3CCC(O)C(F)(F)F)C(C3CC3)C3CC3)cc1COCC2` (some centres unmarked) [compound 81] cannot be ordered by IC50: 50 to 150 nM for the first, at most 50 nM for the second.

`Cc1[nH]nc2c1-c1cc(F)c(NC(=O)[C@@H](NC(=O)c3ccnn3C(C)C)C(C3CC3)C3CC3)cc1CN(C(C)C(F)(F)F)C(=O)C2` (single isomer, unassigned) [compound 186a] and `Cc1[nH]nc2c1-c1cc(F)c(NC(=O)[C@@H](NC(=O)c3ccnn3C(C)C)C(C3CC3)C3CC3)cc1CN(C1CC(F)(F)C1)CC2` [compound 176] cannot be ordered by IC50: at most 50 nM for the first, at most 50 nM for the second.

`Cc1[nH]nc2c1-c1cnc(NC(=O)[C@@H](NC(=O)/C(F)=C\C(C)C)C(C3CC3)C3CC3)cc1COCC2` [compound 238] and `Cc1[nH]nc2c1-c1cnc(NC(=O)[C@@H](NC(=O)/C(F)=C\C3CC3)C(C3CC3)C3CC3)cc1COCC2` [compound 239] cannot be ordered by IC50: at most 50 nM for the first, at most 50 nM for the second.

`[2H]C([2H])([2H])C([2H])([2H])n1nccc1C(=O)N[C@H](C(=O)Nc1cc2c(cc1F)-c1c(n[nH]c1C)CCOC2)C(C1CC1)C1CC1` [compound 90] and `COCCCn1nccc1C(=O)N[C@H](C(=O)Nc1cc2c(cc1F)-c1c(n[nH]c1C)CCOC2)C(C1CC1)C1CC1` [compound 58] cannot be ordered by IC50: at most 50 nM for the first, at most 50 nM for the second.

`Cc1[nH]nc2c1-c1cc(F)c(NC(=O)[C@@H](NC(=O)c3ccnn3C(C)C)C(C3CC3)C3CC3)cc1CN(C1CCOCC1)CC2` [compound 174] and `Cc1[nH]nc2c1-c1cnc(NC(=O)[C@@H](NC(=O)c3conc3C3CC3)C(C3CC3)C3CC3)cc1CN(C1CC1)CC2` [compound 215] cannot be ordered by IC50: at most 50 nM for the first, at most 50 nM for the second.
